In US6479435B1, “Diaryl ethers and processes for their preparation and herbicidal and desiccant compositions containing them” (ISK Americas Incorporated, priority 1997, dated 2002):

Columns and labels:
Format in all cases: in vivo
[1] = test system: lambsquarters (Chenopodium album, CHEAL); assay: Post-emerge greenhouse herbicide test, phytotoxicity rating; details: 14 days after application
Text: (§1) A standard greenhouse herbicide activity screening system was used to evaluate the herbicidal efficacy and crop safety of these test compounds. Six broadleaf weed species including redroot pigweed (Amaranthus retroflexus, AMARE), velvetleaf (Abutilon theophrasti, ABUTH), sicklepod (Cassia obtusifolia, CASOB), ivyleaf morningglory (Ipomoea hederacea, IPOHE), lambsquarters (Chenopodium album, CHEAL) and common ragweed (Ambrosia artemisiifolia L., AMBEL) were used as test species. Four grass weed species including green foxtail (Setaria viridis, SETVI), barnyardgrass (Echinochloa crusgalli, ECHCG), Johnsongrass (Sorghum halepense, SORHA), and large crabgrass (Digitaria sanguinalis, DIGSA) were also used. In addition, three crop species, field corn (Zea mays L., var. Dekalb 535, CORN), soybean (Glycine max L., var. Pella 86, SOY), and upland rice (Oryza sp., var.Tebonnet, RICE) were included.
(§2) All test compounds were dissolved in acetone and applied to the test units in a volume of 187 l/ha. Test materials were applied at rates ranging from 125 g ai/ha to 1000 g ai/ha using a track sprayer equipped with a TJ8001E even flow flat fan spray nozzle. Plants were arranged on a shelf so that the top of the canopy (post-emerge) or top of the soil surface (pre-emerge) was 40-45 cm below the nozzle. Pressurized air was used to force the test solution through the nozzle as it was mechanically advanced (via electrically driven chain drive) over the top of all test plants/pots. This application simulates a typical commercial field herbicide application.
(§3) In the post-emerge test, a commercial non-ionic surfactant was also included (0.25% v/v) to enhance wetting of the leaf surfaces Qf target plants at rates ranging from 63 g ai/ha to 1000 g ai/ha. For post-emerge tests, seeds were planted 8-21 days prior to the test to allow emergence and good foliage development prior to application of the test substances. At the time of the post-emerge application, plants of all species were usually at the 2-3 leaf stage of development. Post-emerge test units were always bottom-watered.
(§4) At 14 days after application of the test materials, phytotoxicity ratings were recorded. A rating scale of 0-100 was used as previously described in Research Methods in Weed Science, 2nd edition, B. Truelove, Ed., Southern Weed Science Society, Auburn University, Auburn, Ala., 1977. Briefly, “0” corresponds to no damage and “100” corresponds to complete death of all plants in the test unit. This scale was used both to determine efficacy against weed species and damage to crop species. Herbicide activity data for various compounds of this invention, which are shown by compound number in Tables 1-9, are shown in Tables 13 and 14.

[2] = test system: velvetleaf (Abutilon theophrasti, ABUTH); assay: as above; details: 14 days after application
Text: as §1, §2, §3, §4

[3] = test system: green foxtail (Setaria viridis, SETVI); assay: as above; details: 14 days after application
Text: as §1, §2, §3, §4

[4] = test system: large crabgrass (Digitaria sanguinalis, DIGSA); assay: as above; details: 14 days after application
Text: as §1, §2, §3, §4

[5] = test system: ivyleaf morningglory (Ipomoea hederacea, IPOHE); assay: as above; details: 14 days after application
Text: as §1, §2, §3, §4

[6] = test system: sicklepod (Cassia obtusifolia, CASOB); assay: as above; details: 14 days after application
Text: as §1, §2, §3, §4

[7] = test system: Johnsongrass (Sorghum halepense, SORHA); assay: as above; details: 14 days after application
Text: as §1, §2, §3, §4

[8] = test system: redroot pigweed (Amaranthus retroflexus, AMARE); assay: as above; details: 14 days after application
Text: as §1, §2, §3, §4

[9] = test system: barnyardgrass (Echinochloa crusgalli, ECHCG); assay: as above; details: 14 days after application
Text: as §1, §2, §3, §4

[10] = test system: upland rice (Oryza sp., var.Tebonnet, RICE); assay: Post-emerge greenhouse test, crop damage rating; details: 14 days after application
Text: as §1, §2, §3, §4

[11] = test system: field corn (Zea mays L., var. Dekalb 535, CORN); assay: Post-emerge greenhouse test, crop damage rating; details: 14 days after application
Text: as §1, §2, §3, §4

[12] = test system: lambsquarters (Chenopodium album, CHEAL); assay: Pre-emerge greenhouse herbicide test, phytotoxicity rating; details: 14 days after application, rating scale 0-100
Text: as §1
(§5) All plants were grown in 10 cm square plastic pots which were filled with a sandy loam soil mix. For preemerge tests, seeds were planted one day prior to application of the test compounds. Immediately after application, test units of the pre-emerge applications were watered at the soil surface to incorporate the test materials. Subsequently, these test units were bottom-watered.
as §2, §4

[13] = test system: velvetleaf (Abutilon theophrasti, ABUTH); assay: as above; details: 14 days after application, rating scale 0-100
Text: as §1, §5, §2, §4

[14] = test system: green foxtail (Setaria viridis, SETVI); assay: as above; details: 14 days after application, rating scale 0-100
Text: as §1, §5, §2, §4

[15] = test system: large crabgrass (Digitaria sanguinalis, DIGSA); assay: as above; details: 14 days after application, rating scale 0-100
Text: as §1, §5, §2, §4

[16] = test system: ivyleaf morningglory (Ipomoea hederacea, IPOHE); assay: as above; details: 14 days after application, rating scale 0-100
Text: as §1, §5, §2, §4

[17] = test system: sicklepod (Cassia obtusifolia, CASOB); assay: as above; details: 14 days after application, rating scale 0-100
Text: as §1, §5, §2, §4

[18] = test system: Johnsongrass (Sorghum halepense, SORHA); assay: as above; details: 14 days after application, rating scale 0-100
Text: as §1, §5, §2, §4

[19] = test system: redroot pigweed (Amaranthus retroflexus, AMARE); assay: as above; details: 14 days after application, rating scale 0-100
Text: as §1, §5, §2, §4

[20] = test system: barnyardgrass (Echinochloa crusgalli, ECHCG); assay: as above; details: 14 days after application, rating scale 0-100
Text: as §1, §5, §2, §4

[21] = test system: soybean (Glycine max L., var. Pella 86, SOY); assay: Pre-emerge greenhouse test, crop damage rating; details: 14 days after application, rating scale 0-100
Text: as §1, §5, §2, §4

[22] = test system: soybean (Glycine max L., var. Pella 86, SOY); assay: Post-emerge greenhouse test, crop damage rating; details: 14 days after application
Text: as §1, §2, §3, §4

[23] = test system: upland rice (Oryza sp., var.Tebonnet, RICE); assay: Pre-emerge greenhouse test, crop damage rating; details: 14 days after application, rating scale 0-100
Text: as §1, §5, §2, §4

[24] = test system: field corn (Zea mays L., var. Dekalb 535, CORN); assay: Pre-emerge greenhouse test, crop damage rating; details: 14 days after application, rating scale 0-100
Text: as §1, §5, §2, §4

## N#Cc1cccnc1Oc1cc(-n2c(=O)cc3n(c2=O)CCC3)c(F)cc1Cl [Compound 5-9]
[1]; 1000 g al/ha
  CHEAL phytotoxicity rating (0-100): 70
[2]; 1000 g al/ha
  ABUTH phytotoxicity rating (0-100): 100
[3]; 1000 g al/ha
  SETVI phytotoxicity rating (0-100): 10
[4]; 1000 g al/ha
  DIGSA phytotoxicity rating (0-100): 0
[5]; 1000 g al/ha
  IPOHE phytotoxicity rating (0-100): 90
[6]; 1000 g al/ha
  CASOB phytotoxicity rating (0-100): 30
[7]; 1000 g al/ha
  SORHA phytotoxicity rating (0-100): 0
[8]; 1000 g al/ha
  AMARE phytotoxicity rating (0-100): 50
[9]; 1000 g al/ha
  ECHCG phytotoxicity rating (0-100): 0
[10]; 1000 g al/ha
  RICE crop damage rating (0-100): 25
[11]; 1000 g al/ha
  CORN crop damage rating (0-100): 5
[12]; 1000 g ai/ha
  phytotoxicity rating CHEAL: 100
[13]; 1000 g ai/ha
  phytotoxicity rating ABUTH: 100
[14]; 1000 g ai/ha
  phytotoxicity rating SETVI: 90
[15]; 1000 g ai/ha
  phytotoxicity rating DIGSA: 90
[16]; 1000 g ai/ha
  phytotoxicity rating IPOHE: 100
[17]; 1000 g ai/ha
  phytotoxicity rating CASOB: 30
[18]; 1000 g ai/ha
  phytotoxicity rating SORHA: 90
[19]; 1000 g ai/ha
  phytotoxicity rating AMARE: 80
[20]; 1000 g ai/ha
  phytotoxicity rating ECHCG: 0
[21]; 1000 g ai/ha
  crop damage rating SOY: 50
[22]; 1000 g al/ha
  SOY crop damage rating (0-100): 30
[23]; 1000 g ai/ha
  crop damage rating RICE: 50
[24]; 1000 g ai/ha
  crop damage rating CORN: 0

## O=c1cc2n(c(=O)n1-c1cc(Oc3ncccn3)c(Cl)cc1F)CCC2 [Compound 5-12]
[1]; 63 g al/ha
  CHEAL phytotoxicity rating (0-100): 60
[1]; 500 g al/ha
  CHEAL phytotoxicity rating (0-100): 75
[2]; 63 g al/ha
  ABUTH phytotoxicity rating (0-100): 60
[2]; 500 g al/ha
  ABUTH phytotoxicity rating (0-100): 95
[3]; 63 g al/ha
  SETVI phytotoxicity rating (0-100): 0
[3]; 500 g al/ha
  SETVI phytotoxicity rating (0-100): 50
[4]; 63 g al/ha
  DIGSA phytotoxicity rating (0-100): 0
[4]; 500 g al/ha
  DIGSA phytotoxicity rating (0-100): 40
[5]; 63 g al/ha
  IPOHE phytotoxicity rating (0-100): 40
[5]; 500 g al/ha
  IPOHE phytotoxicity rating (0-100): 30
[6]; 63 g al/ha
  CASOB phytotoxicity rating (0-100): 10
[6]; 500 g al/ha
  CASOB phytotoxicity rating (0-100): 50
[7]; 63 g al/ha
  SORHA phytotoxicity rating (0-100): 0
[7]; 500 g al/ha
  SORHA phytotoxicity rating (0-100): 20
[8]; 63 g al/ha
  AMARE phytotoxicity rating (0-100): 80
[8]; 500 g al/ha
  AMARE phytotoxicity rating (0-100): 40
[9]; 63 g al/ha
  ECHCG phytotoxicity rating (0-100): 0
[9]; 500 g al/ha
  ECHCG phytotoxicity rating (0-100): 40
[10]; 63 g al/ha
  RICE crop damage rating (0-100): 0
[10]; 500 g al/ha
  RICE crop damage rating (0-100): 70
[11]; 63 g al/ha
  CORN crop damage rating (0-100): 0
[11]; 500 g al/ha
  CORN crop damage rating (0-100): 20
[12]; 125 g ai/ha
  phytotoxicity rating CHEAL: 100
[12]; 500 g ai/ha
  phytotoxicity rating CHEAL: 100
[13]; 125 g ai/ha
  phytotoxicity rating ABUTH: 100
[13]; 500 g ai/ha
  phytotoxicity rating ABUTH: 100
[14]; 125 g ai/ha
  phytotoxicity rating SETVI: 100
[14]; 500 g ai/ha
  phytotoxicity rating SETVI: 100
[15]; 125 g ai/ha
  phytotoxicity rating DIGSA: 100
[15]; 500 g ai/ha
  phytotoxicity rating DIGSA: 100
[16]; 125 g ai/ha
  phytotoxicity rating IPOHE: 80
[16]; 500 g ai/ha
  phytotoxicity rating IPOHE: 100
[17]; 125 g ai/ha
  phytotoxicity rating CASOB: 50
[17]; 500 g ai/ha
  phytotoxicity rating CASOB: 100
[18]; 125 g ai/ha
  phytotoxicity rating SORHA: 40
[18]; 500 g ai/ha
  phytotoxicity rating SORHA: 100
[19]; 125 g ai/ha
  phytotoxicity rating AMARE: 100
[19]; 500 g ai/ha
  phytotoxicity rating AMARE: 100
[20]; 125 g ai/ha
  phytotoxicity rating ECHCG: 20
[20]; 500 g ai/ha
  phytotoxicity rating ECHCG: 100
[21]; 125 g ai/ha
  crop damage rating SOY: 40
[21]; 500 g ai/ha
  crop damage rating SOY: 80
[22]; 63 g al/ha
  SOY crop damage rating (0-100): 50
[22]; 500 g al/ha
  SOY crop damage rating (0-100): 100
[23]; 125 g ai/ha
  crop damage rating RICE: 60
[23]; 500 g ai/ha
  crop damage rating RICE: 100
[24]; 125 g ai/ha
  crop damage rating CORN: 10
[24]; 500 g ai/ha
  crop damage rating CORN: 40

## CCN1CC(=O)N(c2cc(Oc3ncccc3C(F)(F)F)c(Cl)cc2F)C1=O [Compound 8-1, 3-[4-chloro-2-fluoro-5-(trifluoromethyl-2-pyridyloxy)phenyl]-1-ethylimidazolidine-2,4-dione]
[1]; 500 g al/ha
  CHEAL phytotoxicity rating (0-100): 85
[2]; 500 g al/ha
  ABUTH phytotoxicity rating (0-100): 90
[3]; 500 g al/ha
  SETVI phytotoxicity rating (0-100): 10
[4]; 500 g al/ha
  DIGSA phytotoxicity rating (0-100): 0
[5]; 500 g al/ha
  IPOHE phytotoxicity rating (0-100): 70
[6]; 500 g al/ha
  CASOB phytotoxicity rating (0-100): 30
[7]; 500 g al/ha
  SORHA phytotoxicity rating (0-100): 0
[8]; 500 g al/ha
  AMARE phytotoxicity rating (0-100): 40
[9]; 500 g al/ha
  ECHCG phytotoxicity rating (0-100): 0
[10]; 500 g al/ha
  RICE crop damage rating (0-100): 0
[11]; 500 g al/ha
  CORN crop damage rating (0-100): 0
[12]; 500 g ai/ha
  phytotoxicity rating CHEAL: 100
[13]; 500 g ai/ha
  phytotoxicity rating ABUTH: 95
[14]; 500 g ai/ha
  phytotoxicity rating SETVI: 85
[15]; 500 g ai/ha
  phytotoxicity rating DIGSA: 100
[16]; 500 g ai/ha
  phytotoxicity rating IPOHE: 30
[17]; 500 g ai/ha
  phytotoxicity rating CASOB: 70
[18]; 500 g ai/ha
  phytotoxicity rating SORHA: 60
[19]; 500 g ai/ha
  phytotoxicity rating AMARE: 100
[20]; 500 g ai/ha
  phytotoxicity rating ECHCG: 40
[21]; 500 g ai/ha
  crop damage rating SOY: 0
[22]; 500 g al/ha
  SOY crop damage rating (0-100): 50
[23]; 500 g ai/ha
  crop damage rating RICE: 30
[24]; 500 g ai/ha
  crop damage rating CORN: 0
